From ChEMBL document CHEMBL1201862, “PubChem BioAssay data set” (2004)
Each block holds one compound with its values, some of them ahead of it. Calls of active or inactive are those of the source.

Assays:
[1] = target: NACHT, LRR and PYD domains-containing protein 3 (Homo sapiens, UniProt Q96P20); assay: NALP3 inhibitors in yeast, dose response, luminescent (AID 488799); format: functional
[2] = viability loss in THP-1 monocytes – THP-1 cells, cytotoxicity control for Vif-APOBEC3G degradation inhibitor project, dose response (AID 1117359); format: functional; conditions: THP-1
[3] = system: HeLa; assay: viability loss in HeLa cells – cell-based, 24 h, cherry-picked samples, cytotoxicity control, dose response (AID 504726); format: functional; conditions: Homo sapiens;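 further: potency for cytotoxicity as loss of luminescence signal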
[4] = target: Cytochrome P450 2C9 (Homo sapiens, UniProt P11712)
[5] = target: Cytochrome P450 2C19 (Homo sapiens, UniProt P33261); assay: Cytochrome panel assay with activity outcomes. Panel member name: p450-cyp2c19 Compounds with AC50 equal or less than 10 uM are considered active; format: functional; conditions: read-out: AC50
[6] = target: DNA (cytosine-5)-methyltransferase 1 (Homo sapiens, UniProt P26358); assay: inhibition of DNA methylation by DNMT1 – biochemical, fluorescent molecular beacon, confirmation (AID 602386); format: functional
[7] = target: Dual specificity protein phosphatase 3 (Homo sapiens, UniProt P51452); assay: inhibition constants for human DUSP3 – biochemical, colorimetric, SAR follow-up (AID 2004)
[8] = target: Signal transducer and activator of transcription 3 (Homo sapiens, UniProt P40763); assay: STAT3 activation with BCL3 mRNA and toxicity – cell-based, […], BCL3 qPCR, cytotoxicity, late-stage follow-up, panel member STAT3 Activation (AID 2049)
[9] = target: G2/mitotic-specific cyclin-B1 (Homo sapiens, UniProt P14635); assay: HeLa cell cycle G2/M accumulation – FACS, mechanism study for Wee1 degradation inhibitor project, late-stage follow-up, panel member Cyclin B Degradation (AID 2088)
[10] = target: Wee1-like protein kinase (Homo sapiens, UniProt P30291); assay: HeLa cell cycle G2/M accumulation – FACS, mechanism study for Wee1 degradation inhibitor project, late-stage follow-up, panel member Wee1 Degradation (AID 2088)
[11] = Luminescence Cell-Based Dose Retest to Confirm Inhibitors of Cancer Stem Cells. [Related pubchem assays (depositor defined):AID2717, AID2721]; format: functional; conditions: Homo sapiens
[12] = target: T1, Ubiquitin-conjugating enzyme E2 N (Homo sapiens, UniProt P61088); format: functional;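 further: Dose-response confirmation in a TR-FRET assay detecting UBC13-driven polyubiquitin chain formation, inhibition measured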
T1 sequence (P61088 whole entry): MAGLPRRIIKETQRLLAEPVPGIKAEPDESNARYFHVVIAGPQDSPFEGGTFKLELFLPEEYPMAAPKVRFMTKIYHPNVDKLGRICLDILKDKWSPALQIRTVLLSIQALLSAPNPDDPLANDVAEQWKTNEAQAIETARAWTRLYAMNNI

[13] = target: Cyclin-dependent kinase 5/CDK5 activator 1 (Homo sapiens, UniProt Q00535); assay: blockade of human CDK5 activity – biochemical, cherry-picked samples, set 2, dose response (AID 504545)
[14] = target: Metabotropic glutamate receptor 4 (Homo sapiens, UniProt Q14833); assay: Modulation of the Metabotropic Glutamate Receptor mGluR4: Potency at human mGluR4. Modulation of intracellular Ca2+ using Fluo-4, AM, in CHO expressing recombinant receptor [Related pubchem assays (depositor defined):AID2437, AID2807]; format: functional, cell-based

Sequence of DNA (cytosine-5)-methyltransferase 1 (P26358 whole entry): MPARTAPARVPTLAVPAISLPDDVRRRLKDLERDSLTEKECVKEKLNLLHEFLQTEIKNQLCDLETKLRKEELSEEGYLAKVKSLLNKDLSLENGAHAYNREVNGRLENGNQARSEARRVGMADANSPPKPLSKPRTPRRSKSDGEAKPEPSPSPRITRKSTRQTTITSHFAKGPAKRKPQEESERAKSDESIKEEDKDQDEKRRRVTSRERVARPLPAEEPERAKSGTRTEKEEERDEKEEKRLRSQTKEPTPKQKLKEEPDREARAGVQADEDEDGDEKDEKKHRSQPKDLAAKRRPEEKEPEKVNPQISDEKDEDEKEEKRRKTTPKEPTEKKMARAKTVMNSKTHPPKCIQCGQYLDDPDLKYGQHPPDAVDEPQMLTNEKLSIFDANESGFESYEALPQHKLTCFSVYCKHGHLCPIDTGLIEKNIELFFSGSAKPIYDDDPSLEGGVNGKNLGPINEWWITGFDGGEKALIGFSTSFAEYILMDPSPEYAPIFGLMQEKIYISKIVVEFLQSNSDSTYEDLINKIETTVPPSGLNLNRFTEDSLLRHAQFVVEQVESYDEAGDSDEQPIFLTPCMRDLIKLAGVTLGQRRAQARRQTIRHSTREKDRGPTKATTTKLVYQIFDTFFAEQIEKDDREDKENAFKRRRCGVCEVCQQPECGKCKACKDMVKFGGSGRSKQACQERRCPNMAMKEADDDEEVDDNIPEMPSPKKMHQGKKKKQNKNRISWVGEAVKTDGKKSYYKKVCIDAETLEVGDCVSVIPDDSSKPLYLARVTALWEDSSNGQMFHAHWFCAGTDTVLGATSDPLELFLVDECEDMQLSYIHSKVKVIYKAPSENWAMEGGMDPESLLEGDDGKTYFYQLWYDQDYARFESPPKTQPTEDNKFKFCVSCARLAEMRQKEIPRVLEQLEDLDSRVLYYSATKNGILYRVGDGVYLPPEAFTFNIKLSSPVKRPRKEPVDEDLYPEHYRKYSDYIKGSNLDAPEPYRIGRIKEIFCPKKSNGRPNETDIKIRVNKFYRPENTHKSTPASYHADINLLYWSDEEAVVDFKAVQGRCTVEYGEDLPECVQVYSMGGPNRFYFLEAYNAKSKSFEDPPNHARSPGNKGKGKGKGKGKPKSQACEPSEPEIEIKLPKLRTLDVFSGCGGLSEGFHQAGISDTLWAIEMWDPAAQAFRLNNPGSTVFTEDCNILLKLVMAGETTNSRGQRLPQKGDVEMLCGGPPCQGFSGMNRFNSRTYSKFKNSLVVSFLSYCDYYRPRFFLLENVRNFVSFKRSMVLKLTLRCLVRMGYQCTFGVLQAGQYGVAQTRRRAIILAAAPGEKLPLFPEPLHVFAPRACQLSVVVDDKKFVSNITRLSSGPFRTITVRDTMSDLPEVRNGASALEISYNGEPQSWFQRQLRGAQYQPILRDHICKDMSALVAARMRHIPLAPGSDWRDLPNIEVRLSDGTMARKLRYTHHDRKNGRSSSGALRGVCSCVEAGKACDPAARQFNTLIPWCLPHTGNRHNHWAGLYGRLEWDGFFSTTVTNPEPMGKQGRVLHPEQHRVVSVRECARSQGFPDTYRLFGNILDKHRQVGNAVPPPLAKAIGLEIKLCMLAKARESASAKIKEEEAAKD
Sequence of Dual specificity protein phosphatase 3 (P51452 whole entry): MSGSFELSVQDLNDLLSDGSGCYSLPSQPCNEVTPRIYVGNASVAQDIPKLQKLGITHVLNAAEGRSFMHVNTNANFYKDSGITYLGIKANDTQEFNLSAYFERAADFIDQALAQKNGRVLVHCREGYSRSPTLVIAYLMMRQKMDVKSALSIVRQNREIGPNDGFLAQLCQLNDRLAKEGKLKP
Sequence of G2/mitotic-specific cyclin-B1 (P14635 whole entry): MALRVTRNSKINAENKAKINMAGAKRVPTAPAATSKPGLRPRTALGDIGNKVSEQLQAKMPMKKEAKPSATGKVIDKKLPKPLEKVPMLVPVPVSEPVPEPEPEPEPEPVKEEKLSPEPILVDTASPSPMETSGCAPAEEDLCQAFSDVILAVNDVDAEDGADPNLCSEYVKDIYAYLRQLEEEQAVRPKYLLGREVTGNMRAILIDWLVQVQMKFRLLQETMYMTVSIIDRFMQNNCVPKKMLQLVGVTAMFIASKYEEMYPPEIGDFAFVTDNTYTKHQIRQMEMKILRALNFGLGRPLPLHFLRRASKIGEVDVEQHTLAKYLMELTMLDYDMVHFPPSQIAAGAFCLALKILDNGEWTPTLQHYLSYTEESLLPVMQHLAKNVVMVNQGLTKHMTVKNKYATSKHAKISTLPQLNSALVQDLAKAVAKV
Sequence of NACHT, LRR and PYD domains-containing protein 3 (Q96P20 whole entry, the tested form may be a part): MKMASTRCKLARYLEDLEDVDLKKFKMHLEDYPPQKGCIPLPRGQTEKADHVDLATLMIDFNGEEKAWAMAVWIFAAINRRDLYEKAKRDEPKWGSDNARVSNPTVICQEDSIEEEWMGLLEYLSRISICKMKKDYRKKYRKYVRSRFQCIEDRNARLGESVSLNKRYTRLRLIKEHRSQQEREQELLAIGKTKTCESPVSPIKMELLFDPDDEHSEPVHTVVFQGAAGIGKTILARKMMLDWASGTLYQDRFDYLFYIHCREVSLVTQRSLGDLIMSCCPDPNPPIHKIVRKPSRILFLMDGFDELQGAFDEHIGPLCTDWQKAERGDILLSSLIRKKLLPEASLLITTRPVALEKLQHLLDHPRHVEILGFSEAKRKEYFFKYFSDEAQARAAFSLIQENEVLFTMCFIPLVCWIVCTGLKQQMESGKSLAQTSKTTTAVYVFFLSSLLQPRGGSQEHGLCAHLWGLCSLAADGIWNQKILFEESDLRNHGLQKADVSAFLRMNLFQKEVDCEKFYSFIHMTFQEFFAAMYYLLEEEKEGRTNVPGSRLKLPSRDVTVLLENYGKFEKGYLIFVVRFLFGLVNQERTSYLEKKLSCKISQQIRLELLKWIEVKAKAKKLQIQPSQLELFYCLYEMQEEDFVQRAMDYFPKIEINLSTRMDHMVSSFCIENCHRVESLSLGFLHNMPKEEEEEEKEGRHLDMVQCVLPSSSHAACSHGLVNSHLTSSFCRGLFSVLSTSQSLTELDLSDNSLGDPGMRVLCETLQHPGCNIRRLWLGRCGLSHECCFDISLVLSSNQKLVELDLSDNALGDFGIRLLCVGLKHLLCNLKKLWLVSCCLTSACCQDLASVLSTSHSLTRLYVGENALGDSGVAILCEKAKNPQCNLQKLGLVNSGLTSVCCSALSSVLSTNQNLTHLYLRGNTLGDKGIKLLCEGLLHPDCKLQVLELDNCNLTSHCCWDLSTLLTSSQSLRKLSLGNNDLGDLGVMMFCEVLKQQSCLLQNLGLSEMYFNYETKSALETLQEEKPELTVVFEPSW
Sequence of Cytochrome P450 2C9 (P11712 whole entry): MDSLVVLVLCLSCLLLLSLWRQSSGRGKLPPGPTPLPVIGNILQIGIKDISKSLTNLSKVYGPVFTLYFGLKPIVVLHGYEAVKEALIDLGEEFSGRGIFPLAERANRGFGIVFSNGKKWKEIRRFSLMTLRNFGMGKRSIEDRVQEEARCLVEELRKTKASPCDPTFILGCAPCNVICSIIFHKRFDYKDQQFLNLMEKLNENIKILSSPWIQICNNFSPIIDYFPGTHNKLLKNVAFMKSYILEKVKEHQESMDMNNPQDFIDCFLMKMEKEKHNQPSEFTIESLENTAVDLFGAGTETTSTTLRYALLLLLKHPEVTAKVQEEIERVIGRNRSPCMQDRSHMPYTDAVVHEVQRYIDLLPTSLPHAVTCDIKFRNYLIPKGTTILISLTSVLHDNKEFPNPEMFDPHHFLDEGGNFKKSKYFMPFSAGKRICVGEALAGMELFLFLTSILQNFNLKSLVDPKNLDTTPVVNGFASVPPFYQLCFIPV
Sequence of Cyclin-dependent kinase 5/CDK5 activator 1 (Q00535 whole entry): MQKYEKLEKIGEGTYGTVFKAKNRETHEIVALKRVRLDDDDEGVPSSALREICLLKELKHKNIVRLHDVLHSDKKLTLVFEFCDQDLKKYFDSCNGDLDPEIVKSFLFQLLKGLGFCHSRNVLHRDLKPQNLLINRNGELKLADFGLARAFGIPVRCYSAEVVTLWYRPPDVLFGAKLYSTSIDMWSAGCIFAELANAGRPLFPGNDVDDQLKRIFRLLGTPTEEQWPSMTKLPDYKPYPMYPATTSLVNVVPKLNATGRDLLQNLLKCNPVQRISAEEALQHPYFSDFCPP
Sequence of Cyclin-dependent kinase 5/CDK5 activator 1 (Q15078 whole entry, further chain): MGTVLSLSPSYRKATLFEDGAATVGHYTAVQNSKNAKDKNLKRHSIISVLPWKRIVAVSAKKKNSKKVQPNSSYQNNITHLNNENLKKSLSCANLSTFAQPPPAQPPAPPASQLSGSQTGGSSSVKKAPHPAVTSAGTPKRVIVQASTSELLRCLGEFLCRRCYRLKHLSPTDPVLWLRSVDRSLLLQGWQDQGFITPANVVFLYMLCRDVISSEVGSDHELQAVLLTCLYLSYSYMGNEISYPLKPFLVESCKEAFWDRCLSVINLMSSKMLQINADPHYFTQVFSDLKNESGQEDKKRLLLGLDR
Sequence of Wee1-like protein kinase (P30291 whole entry): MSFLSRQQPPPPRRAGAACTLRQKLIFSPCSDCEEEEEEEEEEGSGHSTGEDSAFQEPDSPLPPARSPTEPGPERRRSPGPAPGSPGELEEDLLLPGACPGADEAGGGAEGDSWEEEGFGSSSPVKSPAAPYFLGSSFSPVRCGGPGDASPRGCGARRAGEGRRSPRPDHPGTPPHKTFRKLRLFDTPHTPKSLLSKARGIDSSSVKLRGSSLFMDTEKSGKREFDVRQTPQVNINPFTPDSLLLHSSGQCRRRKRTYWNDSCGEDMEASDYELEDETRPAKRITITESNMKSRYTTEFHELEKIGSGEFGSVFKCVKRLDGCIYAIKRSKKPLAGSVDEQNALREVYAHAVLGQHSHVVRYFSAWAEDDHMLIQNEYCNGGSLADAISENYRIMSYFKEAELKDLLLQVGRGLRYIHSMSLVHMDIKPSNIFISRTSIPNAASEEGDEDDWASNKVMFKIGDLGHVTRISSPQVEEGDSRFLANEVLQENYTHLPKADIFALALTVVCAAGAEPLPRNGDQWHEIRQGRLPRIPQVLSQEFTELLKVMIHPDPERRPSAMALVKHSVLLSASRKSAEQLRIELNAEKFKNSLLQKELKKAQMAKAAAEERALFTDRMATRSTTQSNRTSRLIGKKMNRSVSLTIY

Compound: CN(CC(=O)N1CCc2ccccc2C1)c1ccccc1
IC50 [1]: > 100 µM (inactive)

Compound: COC(=O)\C(C(C)=O)=C(/C=C/C=C/C=C/N(C)C)N(C)C
CC50 [2]: > 40 µM (active) | AC50 [3]: 274 µM (active) | AC50 [4]: 15.8 µM (inconclusive) | AC50 [5]: 14.1 µM (inconclusive) | IC50 [6]: 8.38 µM (active)

Compound: COc1ccc(-c2csc(Nc3ccc(N)cc3)n2)cc1OC
Ki [7]: 71.1 µM (inactive)

Compound: COc1cc(NC(=O)c2cc(C3CC3)on2)cc(OC)c1
EC50 [8]: > 5.57 µM (inactive)

EC50 [9]: > 49.7 µM (inactive) | EC50 [10]: > 49.7 µM (inactive)
Compound: Cc1ccc(NC(=O)CCCOc2cc(=O)n(C)c3ccccc23)c(Cl)c1

Compound: CC[C@H](CO)Nc1nc(Nc2cccc(Cl)c2)c2ncn(C(C)C)c2n1
AC50 [11]: 6.4 µM (active) | IC50 [12]: > 20 µM (inactive) | AC50 [13]: 0.275 µM (active)

Compound: N#Cc1ccc(NC(=O)c2ccccn2)cc1C(F)(F)F
EC50 [14]: 1.77 µM (active)
